Legend:
[1] = test system: hippocampal CA3-CA1 synapse; assay: Paired-pulse test in alert behaving rats; type: in vivo, Sprague Dawley rats; conditions: 1 g/kg p.o., before, 90 min and 180 min after administration, FIG. 3
Procedure: (§1) In this Example, the effect of 2FL on LTP of the hippocampal CA3-CA1 synapse in alert behaving rats was analyzed,
(§2) A total of four male Sprague Dawley rats, each 2 months old weighing from 150-200 g, were placed in individual cages with food and water ad libitum. Rats were kept on a 12/12 hour light/dark cycle with constant ambient temperature (22±1° C.) and humidity (50±7%). All tests were conducted during the light cycle.
(§3) The rats were anesthetized with 0.8%-3% isofluorane (available from AstraZeneca, Madrid, Spain) delivered via a home-made mask. […] was administered from a calibrated Fluotec 5 vaporizer (available from Fluotec-Ohmeda, Tewksbury, Mass.) at a flow rate of 1-4 L/min oxygen. Once anesthetized, the rats were implanted with stimulating and recording electrodes in the hippocampus. […] The recording electrodes were fixed at the site where a reliable monosynaptic field excitatory post-synaptic potential (fEPSP) was recorded. […]
(§4) Control values for input/output curves and paired-pulse facilitation in the four rats were determined. […]

[2] = test system: hippocampal CA3-CA1 synapse; assay: Hippocampal LTP response in early stressed maternally deprived mice (fEPSP recordings); type: in vivo, C57BL/6 mice; conditions: MS-stressed mice, AIN93G diet supplemented with 2-fucosyllactose (~7 mg/day/mouse) for eight weeks; compared with the control groups, p<0.05; FIG. 1
Procedure: In this Example, the effect of 2-fucosyl-lactose on hippocampal LTP response in early stressed maternally deprived mice was analyzed.
Initially, mice pups were early stressed using a model of maternal separation. Particularly, one day after delivery, C57BL/6 mice pups were sexed and grouped as sham (non-stressed Control group) or maternally separated (MS—stressed group) animals. From day 2 until day 14 after delivery, the MS pups were removed from the dam and kept isolated for a period of 4 hours per day, typically, from 10:00 AM to 2:00 PM, in a thermostatted cup. During the same time period, pups from the sham group were daily handled for a period of five minutes in order to receive the same grade of habituation to a researcher's hands as the MS pups.
Each dam had litters of 4 males and 2 females. Females were allowed to stay with the mother, while males were maternally deprived in order to avoid stressing the dam by removing all of the pups. […]
At the nutritional intervention stage, mice were fed experimental diets for a period of eight weeks. […] The recording electrodes were fixed at the site where a reliable monosynaptic field excitatory post-synaptic potential (fEPSP) was recorded. […]
For evoking LTP, each animal was presented with five 200 Hz, […] trains of pulses at a rate of 1/s. […] After, fEPSPs were recorded again for 30 minutes. […]

[3] = test system: Acetylcholinesterase (AChE); assay: Acetylcholinesterase (AChE) levels in zebrafish embryos; type: in vivo; conditions: zebrafish larvae, 74.73 mg per liter, 24 hours at 26° C.; negative control water; FIG. 5
Procedure: In this Example, the effect of 2FL on Acetylcholinesterase (AChE) in zebrafish embryos was analyzed.
Zebrafish embryos were grown in water for 96 post-fertilization hours, when eclosion occurs. The larvae were then transferred into a 24-well culture dish and incubated for 24 hours at 26° C. in a dilution of 74.73 mg of 2FL per liter. A negative control (water) and a positive control for AChE (100 mg docosahexaenoic acid/liter) were included in the assay.
After incubation, larvae were homogenized and centrifuged. AChE levels and total protein content were determined in the resultant supernatants. Two separate assays were done in triplicates. Specific AChE activity data were referred to control and analyzed by ANOVA. Bonferroni post hoc tests were used for comparisons.

[4] = test system: hippocampal CA3-CA1 synapse; assay: Input/output curves evoked at the hippocampal CA3-CA1 synapse in alert behaving rats; type: in vivo, Sprague Dawley rats; conditions: 1 g/kg p.o. in gelatin, 90 and 180 minutes after administration vs before, FIG. 2
Procedure: as §1, §2, §3, §4

[5] = test system: hippocampal CA3-CA1 synapse; assay: LTP induction in behaving rats; type: in vivo, Sprague Dawley rats; conditions: after 15 days of daily administration of 1 g/kg, vs control values, FIG. 4
Procedure: as §1, §2, §3
For evoking LTP, each rat was presented with five 200 Hz, 100 ms trains of pulses at a rate of 1/s. […] After, fEPSPs were recorded again for 30 minutes. […]

In the case of 2-fucosyl-lactose [2FL], the “paired-pulse facilitation, differences between the three recording sessions” value [1] is reported as “no significant differences”, the “potentiation of field excitatory post-synaptic potentials evoked at the hippocampal CA3-CA1 synapse” value [2] is reported as “larger, longer-lasting potentiation” and the “AChE levels compared to the negative control” value [3] is reported as “significant increase”. For the same substance, the “amplitude of fEPSPs evoked at the CA3-CA1 synapse (input/output curves)” value [4] was “significantly larger” and the “fEPSPs of LTP evoked after HFS of the hippocampal CA3-CA1 synapse” value [5] was “significantly larger fEPSPs than control values”.
